Results on 12 molecules are retold here after publication PMC5466188 (Biotechnology Reports, 2014).

For this experiment, the target named is Acetylcholinesterase (AChE, from electric eel) (Electrophorus electricus, UniProt O42275). Put plainly: In vitro AChE inhibition assay. The class given is biochemical.

Broadly, the IC50 is the concentration that inhibits the measured activity by half. A higher IC50 goes with lower potency.

Acetylcholinesterase (AChE, from electric eel), sequence (O42275 24-633): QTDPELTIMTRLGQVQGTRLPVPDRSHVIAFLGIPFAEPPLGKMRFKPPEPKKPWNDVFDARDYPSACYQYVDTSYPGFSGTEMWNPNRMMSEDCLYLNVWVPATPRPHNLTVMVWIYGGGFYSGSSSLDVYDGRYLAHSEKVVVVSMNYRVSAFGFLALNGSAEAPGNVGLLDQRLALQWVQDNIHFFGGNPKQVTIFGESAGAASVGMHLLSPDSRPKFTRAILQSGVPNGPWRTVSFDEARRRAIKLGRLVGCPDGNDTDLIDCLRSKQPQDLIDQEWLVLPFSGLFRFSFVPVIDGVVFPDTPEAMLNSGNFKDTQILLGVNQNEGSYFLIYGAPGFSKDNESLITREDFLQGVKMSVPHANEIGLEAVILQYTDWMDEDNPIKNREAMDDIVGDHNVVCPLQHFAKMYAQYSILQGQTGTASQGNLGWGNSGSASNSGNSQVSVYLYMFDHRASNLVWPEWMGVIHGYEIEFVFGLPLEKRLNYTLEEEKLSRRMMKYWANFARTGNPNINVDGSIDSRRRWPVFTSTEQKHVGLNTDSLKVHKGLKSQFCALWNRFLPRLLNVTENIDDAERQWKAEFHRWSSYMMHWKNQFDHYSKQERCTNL

`CC1=C(C(=O)NC(=O)c2cnccn2)C(c2ccc(Cl)cc2)NC(=S)N1` (stereo not drawn) [Compound 4j, 4-(4-Chlorophenyl)-6-methyl-N-(pyrazin-2-ylcarbonyl)-2-thioxo-1,2,3,4-tetrahydropyrimidine-5-carboxamide] came in with an IC50 of 0.88 ± 0.01 µM.
In turn, `CC1=C(C(=O)NC(=O)c2cnccn2)C(c2ccccc2)NC(=O)N1` (stereo not drawn) [Compound 4a, 6-Methyl-2-oxo-4-phenyl-N-(pyrazin-2-ylcarbonyl)-1,2,3,4-tetrahydropyrimidine-5-carboxamide] showed an IC50 of 5.35 ± 0.01 µM.
The molecule `CC1=C(C(=O)NC(=O)c2cnccn2)C(c2ccncc2)NC(=S)N1` (stereo not drawn) [Compound 4l, 6-Methyl-N-(pyrazin-2-ylcarbonyl) -4-(pyridin-4-yl) -2-thioxo-1,2,3,4-tetrahydropyrimidine-5-carboxamide] came in with an IC50 of 0.11 ± 0.01 µM.
In the case of `CC1=C(C(=O)NC(=O)c2cnccn2)C(c2cccc([N+](=O)[O-])c2)NC(=O)N1` (stereo not drawn) [Compound 4c, 6-Methyl-4-(3-nitrophenyl)-2-oxo-N-(pyrazin-2-ylcarbonyl)-1,2,3,4-tetrahydropyrimidine-5-carboxamide], it took 2.54 ± 0.01 µM to reach half-maximal inhibition (IC50).
On to `CC1=C(C(=O)NC(=O)c2cnccn2)C(c2cccc(Cl)c2)NC(=S)N1` (stereo not drawn) [Compound 4f, 4-(3-Chlorophenyl)-6-methyl-N-(pyrazin-2-ylcarbonyl)-2-thioxo-1,2,3,4-tetrahydropyrimidine-5-carboxamide], for which the IC50 was 1.05 ± 0.01 µM.
The figure for `CC1=C(C(=O)NC(=O)c2cnccn2)C(c2ccc(F)cc2)NC(=S)N1` (stereo not drawn) [Compound 4h, 4-(4-Fluorophenyl)-6-methyl-N-(pyrazin-2-ylcarbonyl)-2-thioxo-1,2,3,4-tetrahydropyrimidine-5-carboxamide] is 0.75 ± 0.01 µM; for `CC1=C(C(=O)NC(=O)c2cnccn2)C(c2ccc(Cl)cc2)NC(=O)N1` (stereo not drawn) [Compound 4i, 4-(4-Chlorophenyl)-6-methyl-2-oxo-N-(pyrazin-2-ylcarbonyl)-1,2,3,4-tetrahydropyrimidine-5-carboxamide] it is 0.94 ± 0.01 µM; for `CC1=C(C(=O)NC(=O)c2cnccn2)C(c2ccncc2)NC(=O)N1` (stereo not drawn) [Compound 4k, 6-Methyl-2-oxo-N-(pyrazin-2-ylcarbonyl)-4-(pyridin-4-yl)-1,2,3,4-tetrahydropyrimidine-5-carboxamide] it is 0.19 ± 0.01 µM.
The figure for `CC1=C(C(=O)NC(=O)c2cnccn2)C(c2cccc([N+](=O)[O-])c2)NC(=S)N1` (stereo not drawn) [Compound 4d, 6-Methyl-4-(3-nitrophenyl)-N-(pyrazin-2-ylcarbonyl)-2-thioxo-1,2,3,4-tetrahydropyrimidine-5-carboxamide] is 1.82 ± 0.01 µM; for `CC1=C(C(=O)NC(=O)c2cnccn2)C(c2cccc(Cl)c2)NC(=O)N1` (stereo not drawn) [Compound 4e, 4-(3-Chlorophenyl)-6-methyl-2-oxo-N-(pyrazin-2-ylcarbonyl)-1,2,3,4-tetrahydropyrimidine-5-carboxamide] it is 1.21 ± 0.01 µM.
Take `CC1=C(C(=O)NC(=O)c2cnccn2)C(c2ccccc2)NC(=S)N1` (stereo not drawn) [Compound 4b, 6-Methyl-4-phenyl-N-(pyrazin-2-ylcarbonyl)-2-thioxo-1,2,3,4-tetrahydropyrimidine-5-carboxamide]: the IC50 amounted to 5.26 ± 0.01 µM.
In turn, `CC1=C(C(=O)NC(=O)c2cnccn2)C(c2ccc(F)cc2)NC(=O)N1` (stereo not drawn) [Compound 4g, 4-(4-Fluorophenyl)-6-methyl-2-oxo-N-(pyrazin-2-ylcarbonyl)-1,2,3,4-tetrahydropyrimidine-5-carboxamide] gave an IC50 of 0.86 ± 0.01 µM.
